Assay results as given in EPA's CvTdb concentration-time database.

Experiments:
Rat [1] = assay: concentration in plasma after dosing; details: dosed: Isoeugenol, 70 mg/kg, oral, Male, F344/N
Rat [2] = assay: concentration in plasma after dosing; details: dosed: Isoeugenol, 17 mg/kg, oral, Female, F344/N
Rat [3] = assay: concentration in plasma after dosing; details: dosed: Isoeugenol, 17 mg/kg, oral, Female, F344/N; remark: listed apart in the source
Rat [4] = assay: concentration in plasma after dosing; details: dosed: Isoeugenol, 70 mg/kg, oral, Male, F344/N; remark: listed apart in the source
Rat [5] = assay: concentration in plasma after dosing; details: 5 min; dosed: Isoeugenol; 17 mg/kg; oral; Male; F344/N
Rat [6] = assay: concentration in plasma after dosing; details: dosed: Isoeugenol, 17 mg/kg, oral, Female, F344/N; remark: listed apart in the source
Rat [7] = assay: concentration in plasma after dosing; details: 20 min; dosed: Isoeugenol; 17 mg/kg; oral; Male; F344/N
Rat [8] = assay: concentration in plasma after dosing; details: dosed: Isoeugenol, 17 mg/kg, oral, Female, F344/N; remark: listed apart in the source
Rat [9] = assay: concentration in plasma after dosing; details: dosed: Isoeugenol, 17 mg/kg, oral, Female, F344/N; remark: listed apart in the source
Rat [10] = assay: concentration in plasma after dosing; details: 2 min; dosed: Isoeugenol; 17 mg/kg; oral; Male; F344/N
Rat [11] = assay: concentration in plasma after dosing; details: dosed: Isoeugenol, 70 mg/kg, oral, Male, F344/N; remark: listed apart in the source
Rat [12] = assay: concentration in plasma after dosing; details: 10 min; dosed: Isoeugenol; 17 mg/kg; oral; Male; F344/N
Rat [13] = assay: concentration in plasma after dosing; details: dosed: Isoeugenol, 17 mg/kg, oral, Male, F344/N
Rat [14] = assay: concentration in plasma after dosing; details: dosed: Isoeugenol, 70 mg/kg, oral, Male, F344/N; remark: listed apart in the source
Rat [15] = assay: concentration in plasma after dosing; details: dosed: Isoeugenol, 17 mg/kg, oral, Female, F344/N; remark: listed apart in the source
Rat [16] = assay: concentration in plasma after dosing; details: dosed: Isoeugenol, 70 mg/kg, oral, Male, F344/N; remark: listed apart in the source
Rat [17] = assay: concentration in plasma after dosing; details: dosed: Isoeugenol, 17 mg/kg, oral, Female, F344/N; remark: listed apart in the source
Rat [18] = assay: concentration in plasma after dosing; details: 2 h; dosed: Tetralin; 2 mg/kg; iv; Male; Harlan Sprague Dawley
Rat [19] = assay: concentration in plasma after dosing; details: dosed: Tetralin, 2 mg/kg, iv, Male, F344
Rat [20] = assay: concentration in plasma after dosing; details: dosed: Tetralin, 20 mg/kg, iv, Female, Harlan Sprague Dawley
Rat [21] = assay: concentration in plasma after dosing; details: dosed: Tetralin, 20 mg/kg, iv, Female, Harlan Sprague Dawley; remark: listed apart in the source
Rat [22] = assay: concentration in plasma after dosing; details: dosed: Tetralin, 2 mg/kg, iv, Male, F344; remark: listed apart in the source
Rat [23] = assay: concentration in plasma after dosing; details: 2 h; dosed: Tetralin; 2 mg/kg; iv; Male; F344
Rat [24] = assay: concentration in plasma after dosing; details: 2 h; dosed: Tetralin; 2 mg/kg; iv; Male; F344; remark: listed apart in the source
Rat [25] = assay: concentration in plasma after dosing; details: dosed: Tetralin, 20 mg/kg, iv, Female, Harlan Sprague Dawley; remark: listed apart in the source
Rat [26] = assay: concentration in plasma after dosing; details: dosed: Tetralin, 2 mg/kg, iv, Male, F344; remark: listed apart in the source
Rat [27] = assay: concentration in plasma after dosing; details: dosed: Tetralin, 2 mg/kg, iv, Male, Harlan Sprague Dawley
Rat [28] = assay: concentration in plasma after dosing; details: dosed: Tetralin, 20 mg/kg, iv, Female, Harlan Sprague Dawley; remark: listed apart in the source
Rat [29] = assay: concentration in plasma after dosing; details: dosed: Tetralin, 20 mg/kg, iv, Female, Harlan Sprague Dawley; remark: listed apart in the source
Rat [30] = assay: concentration in plasma after dosing; details: 1 h; dosed: Tetralin; 2 mg/kg; iv; Male; Harlan Sprague Dawley
Rat [31] = assay: concentration in plasma after dosing; details: dosed: Tetralin, 2 mg/kg, iv, Male, F344; remark: listed apart in the source
Rat [32] = assay: concentration in plasma after dosing; details: dosed: Tetralin, 2 mg/kg, iv, Male, Harlan Sprague Dawley; remark: listed apart in the source
rat [33] = assay: concentration in blood after dosing; details: dosed: styrene, 3000 ppm, dermal, duration: 4 hr, male, F344
rat [34] = assay: concentration in blood after dosing; details: dosed: styrene, 3000 ppm, dermal, duration: 4 hr, male, F344; remark: listed apart in the source
rat [35] = assay: concentration in blood after dosing; details: dosed: styrene, 3000 ppm, dermal, duration: 4 hr, male, F344; remark: listed apart in the source

C/C=C/c1ccc(O)c(OC)c1 [Isoeugenol]
Details	concentration in plasma [ng/mL]
Rat [1], 5 h	106
Rat [1], 5 min	1020
Rat [2], 2 h	23.2
Rat [2], 2 min	69.1
Rat [3], 0.5 h	243
Rat [3], 8 h	18
Rat [4], 4 h	339
Rat [4], 20 min	557
Rat [6], 1.5 h	26
Rat [6], 2 min	25.6
Rat [8], 0.75 h	40.3
Rat [8], 6 h	74.4
Rat [9], 0.75 h	52.2
Rat [9], 3 h	16.3
Rat [11], 2 h	68.4
Rat [11], 2 min	711
Rat [13], 1 h	39.5
Rat [13], 6 h	27.7
Rat [14], 1.5 h	97
Rat [14], 10 min	850
Rat [15], 5 min	375
Rat [15], 6 h	160
Rat [16], 6 h	240
Rat [16], 20 min	1840
Rat [17], 0.5 h	162
Rat [17], 4 h	33.5

Details	concentration in plasma [ng/mL]
Rat [5]	194
Rat [7]	132
Rat [10]	35.6
Rat [12]	209

c1ccc2c(c1)CCCC2 [Tetralin]
Details	concentration in plasma [µg/g]
Rat [18]	0.0179
Rat [23]	0.0271
Rat [24]	0.0337
Rat [30]	0.0313

Details	concentration in plasma [µg/g]
Rat [19], 0.25 h	0.386
Rat [19], 6 h	0.0061
Rat [20], 0.505 h	5.59
Rat [20], 8 h	0.077
Rat [21], 1 h	1.98
Rat [21], 24 h	0.0136
Rat [22], 1 h	0.066
Rat [22], 24 h	0.00085
Rat [25], 0.25 h	11.4
Rat [25], 6 h	0.104
Rat [26], 0.75 h	0.134
Rat [26], 12 h	0.00182
Rat [27], 4 h	0.00854
Rat [27], 5 min	1.74
Rat [28], 1 h	0.797
Rat [28], 24 h	0.00536
Rat [29], 4 h	0.204
Rat [29], 5 min	20.3
Rat [31], 1 h	0.0668
Rat [31], 24 h	0.00063
Rat [32], 0.5033 h	0.192
Rat [32], 8 h	0.0056

C=Cc1ccccc1 [styrene]
concentration in blood [ng/mL]
Details	0.5 h	1 h	2 h	3 h	4 h
rat [33]	7760	7040	11500	7240	13000
rat [34]	1550	3450	4650	8180	8810
rat [35]	1870	2430	5540	6070	7900
